Reference: ChEMBL document CHEMBL4765331, “Amides of pyrrole- and thiophene-fused anthraquinone derivatives: A role of the heterocyclic core in antitumor properties” (Eur J Med Chem, 2020)
Active and inactive are the calls of the source. The rule behind the calls is not given here.

Columns and labels:
[1] = Selectivity index, ratio of IC50 for human TERT-RPE1 cells to IC50 for human HL-60 cells; type: toxicity; conditions: TERT-RPE1 cells and HL-60 cells, read-out: Ratio IC50
[2] = system: HL-60; test: Antiproliferative activity against human HL-60 cells assessed as inhibition of cell proliferation measured after 72 hrs by MTT assay; type: functional, cell-based; conditions: HL-60, 72 h
[3] = Selectivity index, ratio of IC50 for human TERT-RPE1 cells to IC50 for human CAPAN-1 cells
[4] = Drug uptake in mouse NIH3T3 cells assessed as compound localization in mitochondria at 1 uM measured after 15 mins by Mitotracker Green FM dye based laser scanning microscope; type: ADME; conditions: nih3t3, 0.25 h
[5] = Antiproliferative activity against P-gp-positive/doxorubicin-resistant human K562/4 cells assessed as inhibition of cell proliferation measured after 72 hrs by MTT assay; type: functional; conditions: K562/4, 72 h
[6] = system: Calf thymus DNA; test: Binding affinity to calf thymus double stranded DNA at 10 uM measured after 5 mins by flourescence spectroscopy method; conditions: Bos taurus
[7] = target: T1, DNA topoisomerase 1 (Homo sapiens) (UniProt P11387); test: Inhibition of human topoisomerase 1-mediated relaxation of supercoiled plasmid using pBR322 plasmid as substrate at 40 uM measured after 30 mins by ethidium bromide dye based agarose gel electrophoresis method
T1 sequence (whole entry): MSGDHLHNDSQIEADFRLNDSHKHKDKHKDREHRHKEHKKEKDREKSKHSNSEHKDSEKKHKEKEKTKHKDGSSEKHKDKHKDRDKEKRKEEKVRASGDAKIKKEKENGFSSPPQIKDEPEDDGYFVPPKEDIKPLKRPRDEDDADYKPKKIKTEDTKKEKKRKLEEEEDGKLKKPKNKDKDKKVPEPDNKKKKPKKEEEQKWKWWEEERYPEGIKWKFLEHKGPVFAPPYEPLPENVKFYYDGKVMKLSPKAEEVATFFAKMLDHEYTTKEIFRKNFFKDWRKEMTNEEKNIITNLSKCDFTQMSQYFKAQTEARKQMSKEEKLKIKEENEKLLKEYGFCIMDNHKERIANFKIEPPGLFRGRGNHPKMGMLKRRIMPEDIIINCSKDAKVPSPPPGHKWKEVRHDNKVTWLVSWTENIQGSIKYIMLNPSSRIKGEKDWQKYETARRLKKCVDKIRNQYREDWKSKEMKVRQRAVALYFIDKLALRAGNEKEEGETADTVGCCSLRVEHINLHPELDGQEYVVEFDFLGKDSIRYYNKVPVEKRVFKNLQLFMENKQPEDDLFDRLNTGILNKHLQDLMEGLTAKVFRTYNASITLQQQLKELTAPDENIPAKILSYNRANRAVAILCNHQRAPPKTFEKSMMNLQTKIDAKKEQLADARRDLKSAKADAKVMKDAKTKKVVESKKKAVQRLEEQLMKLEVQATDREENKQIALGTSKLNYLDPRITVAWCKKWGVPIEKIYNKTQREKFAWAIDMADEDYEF

[8] = system: Calf thymus DNA; test: Binding affinity to calf thymus DNA assessed as binding constant by scatchard plot analysis; conditions: Bos taurus
[9] = system: K562; test: Induction of apoptosis in human K562 cells assessed as necrotic cells at 1.6 uM measured after 24 hrs by Annexin V-APC/PI staining based flow cytometry assay (reference value: 3.9%); type: functional
[10] = system: K562; test: Induction of cell cycle arrest in human K562 cells assessed as accumulation at subG1 phase at 2XIC50 measured after 24 hrs by propidium iodide/RNase staining based flow cytometry; type: functional
[11] = Toxicity in BDF1 mouse xenografted with mouse P388 cells assessed as lethality at 60 mg/kg, ip administered qd for 5 days; type: organism-based; conditions: in vivo, 120 h, dose 60 mg/kg/day, time 5 day
[12] = system: NCI-H460; test: Antiproliferative activity against human NCI-H460 cells assessed as inhibition of cell proliferation measured after 72 hrs by MTT assay; type: functional, cell-based; conditions: NCI-H460, 72 h
[13] = system: K562; test: Induction of apoptosis in human K562 cells assessed as late apoptotic cells at 1.6 uM measured after 24 hrs by Annexin V-APC/PI staining based flow cytometry assay (reference value: […]); type: functional
[14] = system: K562; test: Induction of apoptosis in human K562 cells assessed as early apoptotic cells at 1.6 uM measured after 24 hrs by Annexin V-APC/PI staining based flow cytometry assay (reference value: 3.4%); type: functional
[15] = system: K562; test: Antiproliferative activity against human K562 cells assessed as inhibition of cell proliferation measured after 72 hrs by MTT assay; type: functional, cell-based; conditions: K562, 72 h
[16] = system: P388; test: Antitumour activity against mouse P388 cells xenografted subcutaneously in BDF1 mouse assessed as inhibition of tumour growth at 20 to 60 mg/kg, ip administered qd for 5 days starting from day 1 of tumor cell inoculation and measured at day 14 to 18 post-tumor cell inoculation; type: functional, organism-based; conditions: dose 20-60 mg/kg, time 14-18 day, TDE = time-dependent effect
[17] = system: K562; test: Induction of cell cycle arrest in human K562 cells assessed as accumulation at G2/M phase at 2XIC50 measured after 24 hrs by propidium iodide/RNase staining based flow cytometry; type: functional
[18] = system: K562; test: Induction of oxidative stress in human K562 cells assessed as increase in intracellular ROS generation at 1.6 uM measured after 40 mins by Deep Red dye based flow cytometry method; type: functional, cell-based
[19] = Drug uptake in mouse NIH3T3 cells assessed as compound localization in cytoplasm at 1 uM measured after 15 mins by laser scanning microscope; type: ADME, subcellular; conditions: nih3t3, 0.25 h
[20] = system: K562; test: Induction of apoptosis in human K562 cells assessed as necrotic cells at 1.6 uM measured after 48 hrs by Annexin V-APC/PI staining based flow cytometry assay (reference value: 3.9%); type: functional
[21] = system: K562; test: Induction of cell cycle arrest in human K562 cells assessed as accumulation at G2/M phase at 2XIC50 measured after 48 hrs by propidium iodide/RNase staining based flow cytometry; type: functional
[22] = system: P388; test: Antitumour activity against mouse P388 cells xenografted subcutaneously in BDF1 mouse assessed as inhibition of tumour growth at 20 mg/kg, ip administered qd for 5 days starting from day 1 of tumor cell inoculation and measured at day 18 post-tumor cell inoculation; type: functional; conditions: P388, 432 h, time 18 day, read-out: TGI
[23] = system: Calf thymus DNA; test: Binding affinity to calf thymus DNA assessed as dissociation constant by scatchard plot analysis; parameters: species or system Bos taurus
[24] = system: K562; test: Induction of apoptosis in human K562 cells assessed as early apoptotic cells at 1.6 uM measured after 48 hrs by Annexin V-APC/PI staining based flow cytometry assay (reference value: 3.4%); type: functional
[25] = system: P388; test: Antitumour activity against mouse P388 cells xenografted intraperitoneally in BDF1 mouse assessed as mean life span time at 20 mg/kg, ip administered qd for 5 days (reference value: 11.5 +/-0.9 days); type: functional; conditions: dose 20 mg/kg/day; time 5 day
[26] = system: HCT-116; test: Antiproliferative activity against human HCT-116 cells with inactivated p53 gene assessed as inhibition of cell proliferation measured after 72 hrs by MTT assay; type: functional, cell-based; conditions: HCT-116, 72 h
[27] = system: K562; test: Induction of apoptosis in human K562 cells assessed as viable cells at 1.6 uM measured after 24 hrs by Annexin V-APC/PI staining based flow cytometry assay (reference value: 85.9%); type: functional; conditions: read-out: Activity

SMILES: Cc1[nH]c2c(O)c3c(c(O)c2c1C(=O)N1CC[C@H](N)C1)C(=O)c1ccccc1C3=O
- selectivity ratio [1]: 18
- IC50 [2]: 0.9 µM
- Ratio IC50 [3]: 18
- Drug uptake [4]: Active
- IC50 [5]: 21.2 µM
- Activity [6]: Active
- inhibition [7]: Active
- Kb [8]: 14 10^5/M
- Activity [9]: 21%
- Activity [10]: Active
- Activity [11]: Non-Toxic
- IC50 [12]: 0.9 µM
- Activity [13]: 8.3%
- Activity [14]: 1.3%
- IC50 [15]: 0.8 µM
- Activity [16]: Tde
- Activity [17]: Active
- Activity [18]: inactive
- Drug uptake [19]: Active
- Activity [20]: 34.8%
- Activity [21]: Active
- inhibition in vivo at 20 mg/kg [22]: 65%
- Kd [23]: 0.7 µM
- Activity [24]: 0.9%
- Time [25]: 17.6 days
- IC50 [26]: 0.8 µM
- viability at 1.6 µM [27]: 69.4%
